Assay results reported in paper PMC4620497 (Scientific Reports, 2015).
Where two headings read alike, the source gives them in different places.

Assays:
[1] = biological target: T1, ABL1(F317L)-phosphorylated (Homo sapiens, UniProt P00519, F317L); assay: KINOMEscan panel screen; type: binding; settings: read-out: Percent Control(%)
T1 construct: purchased DiscoveRx KINOMEscan (Ambit Biosciences)

BIKE = biological target: T2, BIKE (Homo sapiens, UniProt Q9NSY1); assay: KINOMEscan panel screen; type: binding; settings: read-out: Percent Control(%)
T2 construct: purchased DiscoveRx KINOMEscan (Ambit Biosciences)
T2 sequence (Q9NSY1 whole entry): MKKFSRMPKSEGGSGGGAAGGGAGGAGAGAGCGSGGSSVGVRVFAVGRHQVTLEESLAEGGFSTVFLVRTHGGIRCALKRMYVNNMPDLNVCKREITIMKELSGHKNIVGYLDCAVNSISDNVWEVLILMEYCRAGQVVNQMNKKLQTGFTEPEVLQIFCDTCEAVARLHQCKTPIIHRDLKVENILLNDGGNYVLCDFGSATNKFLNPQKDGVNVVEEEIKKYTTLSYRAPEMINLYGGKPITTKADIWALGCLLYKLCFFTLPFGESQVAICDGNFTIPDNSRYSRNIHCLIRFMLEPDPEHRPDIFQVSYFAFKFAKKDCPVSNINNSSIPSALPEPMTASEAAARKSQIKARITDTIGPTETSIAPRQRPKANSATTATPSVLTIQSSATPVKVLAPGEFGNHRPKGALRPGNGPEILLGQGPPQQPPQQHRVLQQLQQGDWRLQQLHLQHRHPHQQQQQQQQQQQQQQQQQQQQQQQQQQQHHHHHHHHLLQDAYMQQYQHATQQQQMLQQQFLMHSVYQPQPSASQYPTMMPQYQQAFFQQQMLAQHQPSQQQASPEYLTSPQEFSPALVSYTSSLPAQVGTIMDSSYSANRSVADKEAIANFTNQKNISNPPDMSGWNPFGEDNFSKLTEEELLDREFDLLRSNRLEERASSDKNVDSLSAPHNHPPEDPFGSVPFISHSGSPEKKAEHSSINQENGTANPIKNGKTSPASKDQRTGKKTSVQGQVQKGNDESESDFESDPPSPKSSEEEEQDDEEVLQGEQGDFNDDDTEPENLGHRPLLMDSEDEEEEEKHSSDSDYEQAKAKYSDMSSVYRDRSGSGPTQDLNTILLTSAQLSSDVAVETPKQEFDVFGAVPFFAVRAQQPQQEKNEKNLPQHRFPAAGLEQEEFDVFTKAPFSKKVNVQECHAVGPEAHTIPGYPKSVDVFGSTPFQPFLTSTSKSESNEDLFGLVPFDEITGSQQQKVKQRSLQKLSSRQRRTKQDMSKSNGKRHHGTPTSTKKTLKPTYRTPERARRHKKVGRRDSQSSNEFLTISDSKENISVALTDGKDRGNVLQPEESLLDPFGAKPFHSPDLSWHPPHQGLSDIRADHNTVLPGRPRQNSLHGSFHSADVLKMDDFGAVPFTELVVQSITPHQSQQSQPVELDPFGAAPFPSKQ

CAMK1G = biological target: T3, CAMK1G (Homo sapiens, UniProt Q96NX5); assay: KINOMEscan panel screen; type: binding; settings: read-out: Percent Control(%)
T3 construct: purchased DiscoveRx KINOMEscan (Ambit Biosciences)

CDC2L5 = biological target: T4, CDC2L5 (Homo sapiens, UniProt Q14004); assay: KINOMEscan panel screen; type: binding; settings: read-out: Percent Control(%)
T4 construct: purchased DiscoveRx KINOMEscan (Ambit Biosciences)
Procedure: (§1) In vitro KINOMEscan kinase binding assays (Ambit Biosciences) were employed to determine the binding affinity (Kd) of compounds[41][42].
(§2) Supplementary Table S3. Matrix of compound screen for SKLB -677 obtained through service provided by DiscoveRX. The compound was screened at a concentration of 10μM. Results are given in %control.
(§3) KINOMEscan Gene Symbol Entrez Gene Percent Compound
(§4) Symbol Control(%) Concentration (μM) […]

PRP4 = biological target: T5, PRP4 (Homo sapiens, UniProt Q13523); assay: KINOMEscan panel screen; type: binding; settings: read-out: Percent Control(%)
T5 construct: purchased DiscoveRx KINOMEscan (Ambit Biosciences)
Procedure: as §1, §2, §3, §4

CLK2 = biological target: T6, CLK2 (Homo sapiens, UniProt P49760); assay: KINOMEscan panel screen; type: binding; settings: read-out: Percent Control(%)
T6 construct: purchased DiscoveRx KINOMEscan (Ambit Biosciences)

DMPK2 = biological target: T7, DMPK2 (Homo sapiens, UniProt Q6DT37); assay: KINOMEscan panel screen; type: binding; settings: read-out: Percent Control(%)
T7 construct: purchased DiscoveRx KINOMEscan (Ambit Biosciences)
T7 sequence (Q6DT37 whole entry): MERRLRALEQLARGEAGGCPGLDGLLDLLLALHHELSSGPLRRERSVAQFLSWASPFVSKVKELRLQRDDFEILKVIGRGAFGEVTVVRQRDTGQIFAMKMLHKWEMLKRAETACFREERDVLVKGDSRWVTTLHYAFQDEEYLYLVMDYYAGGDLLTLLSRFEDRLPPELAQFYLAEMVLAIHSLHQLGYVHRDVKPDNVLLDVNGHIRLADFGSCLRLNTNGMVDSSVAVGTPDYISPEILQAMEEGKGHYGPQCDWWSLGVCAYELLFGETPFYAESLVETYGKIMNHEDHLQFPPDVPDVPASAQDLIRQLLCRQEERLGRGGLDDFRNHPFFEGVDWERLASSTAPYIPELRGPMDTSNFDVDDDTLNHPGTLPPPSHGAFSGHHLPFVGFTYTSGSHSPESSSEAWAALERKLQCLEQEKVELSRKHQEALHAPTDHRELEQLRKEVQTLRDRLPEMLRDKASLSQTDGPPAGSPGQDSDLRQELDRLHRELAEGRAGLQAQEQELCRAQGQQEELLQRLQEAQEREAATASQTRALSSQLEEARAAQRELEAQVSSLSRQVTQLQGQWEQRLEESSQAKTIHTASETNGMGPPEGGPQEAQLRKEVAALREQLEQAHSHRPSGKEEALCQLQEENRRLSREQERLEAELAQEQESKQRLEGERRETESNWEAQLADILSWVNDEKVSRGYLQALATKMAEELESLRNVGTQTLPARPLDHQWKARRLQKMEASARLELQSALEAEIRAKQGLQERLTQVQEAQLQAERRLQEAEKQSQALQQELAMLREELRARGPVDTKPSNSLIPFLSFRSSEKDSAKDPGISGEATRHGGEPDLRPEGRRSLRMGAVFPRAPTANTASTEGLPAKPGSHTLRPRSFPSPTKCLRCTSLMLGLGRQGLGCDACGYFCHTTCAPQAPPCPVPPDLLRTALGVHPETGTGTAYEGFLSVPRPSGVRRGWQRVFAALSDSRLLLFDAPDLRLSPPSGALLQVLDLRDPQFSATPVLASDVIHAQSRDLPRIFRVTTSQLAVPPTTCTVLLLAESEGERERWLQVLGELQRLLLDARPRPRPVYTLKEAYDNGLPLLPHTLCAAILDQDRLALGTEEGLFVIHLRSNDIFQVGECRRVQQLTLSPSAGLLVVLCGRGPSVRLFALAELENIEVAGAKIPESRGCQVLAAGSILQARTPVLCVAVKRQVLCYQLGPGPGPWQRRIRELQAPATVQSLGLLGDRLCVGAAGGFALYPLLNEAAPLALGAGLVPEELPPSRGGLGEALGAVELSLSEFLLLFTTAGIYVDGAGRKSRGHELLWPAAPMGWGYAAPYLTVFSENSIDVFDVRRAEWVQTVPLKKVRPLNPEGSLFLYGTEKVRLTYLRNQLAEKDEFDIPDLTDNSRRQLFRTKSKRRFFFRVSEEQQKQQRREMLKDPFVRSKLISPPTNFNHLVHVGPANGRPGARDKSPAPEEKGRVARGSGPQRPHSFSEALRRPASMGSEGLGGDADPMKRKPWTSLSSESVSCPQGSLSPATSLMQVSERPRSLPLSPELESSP

ERK5 = biological target: T8, ERK5 (Homo sapiens, UniProt Q13164); assay: KINOMEscan panel screen; type: binding; settings: read-out: Percent Control(%)
T8 construct: purchased DiscoveRx KINOMEscan (Ambit Biosciences)

HCK = biological target: T9, HCK (Homo sapiens, UniProt P08631); assay: KINOMEscan panel screen; type: binding; settings: read-out: Percent Control(%)
T9 construct: purchased DiscoveRx KINOMEscan (Ambit Biosciences)
T9 sequence (P08631 whole entry): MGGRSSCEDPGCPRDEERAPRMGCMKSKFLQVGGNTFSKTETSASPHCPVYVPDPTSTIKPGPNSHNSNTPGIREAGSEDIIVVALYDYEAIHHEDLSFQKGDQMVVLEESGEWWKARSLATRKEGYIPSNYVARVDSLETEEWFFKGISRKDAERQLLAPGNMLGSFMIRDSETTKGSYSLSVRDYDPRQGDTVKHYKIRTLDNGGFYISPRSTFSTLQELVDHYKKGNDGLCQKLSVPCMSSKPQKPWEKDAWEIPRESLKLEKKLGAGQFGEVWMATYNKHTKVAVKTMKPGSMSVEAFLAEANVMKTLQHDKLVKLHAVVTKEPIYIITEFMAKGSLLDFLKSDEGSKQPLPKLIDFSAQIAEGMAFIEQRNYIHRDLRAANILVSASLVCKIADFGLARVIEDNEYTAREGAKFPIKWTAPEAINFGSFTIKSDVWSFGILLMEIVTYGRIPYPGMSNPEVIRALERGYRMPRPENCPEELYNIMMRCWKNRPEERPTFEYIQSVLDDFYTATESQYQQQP

MYLK4 = biological target: T10, MYLK4 (Homo sapiens, UniProt Q86YV6); assay: KINOMEscan panel screen; type: binding; settings: read-out: Percent Control(%)
T10 construct: purchased DiscoveRx KINOMEscan (Ambit Biosciences)
T10 sequence (Q86YV6 whole entry): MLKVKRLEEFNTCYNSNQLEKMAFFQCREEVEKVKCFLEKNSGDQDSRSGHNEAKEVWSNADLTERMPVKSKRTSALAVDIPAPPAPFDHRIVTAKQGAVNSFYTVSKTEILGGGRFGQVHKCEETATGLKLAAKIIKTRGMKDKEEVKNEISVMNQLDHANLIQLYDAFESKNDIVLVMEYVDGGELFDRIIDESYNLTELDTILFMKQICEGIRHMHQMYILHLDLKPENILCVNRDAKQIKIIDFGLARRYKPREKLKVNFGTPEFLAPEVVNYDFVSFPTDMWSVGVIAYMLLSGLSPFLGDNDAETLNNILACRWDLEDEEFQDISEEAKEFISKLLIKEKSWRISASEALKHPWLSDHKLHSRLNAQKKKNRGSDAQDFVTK

PAK1 = PAK1 (Homo sapiens, UniProt Q13153); assay: KINOMEscan panel screen; type: binding; settings: read-out: Percent Control(%)
Chain of PAK1 (Q13153 whole entry): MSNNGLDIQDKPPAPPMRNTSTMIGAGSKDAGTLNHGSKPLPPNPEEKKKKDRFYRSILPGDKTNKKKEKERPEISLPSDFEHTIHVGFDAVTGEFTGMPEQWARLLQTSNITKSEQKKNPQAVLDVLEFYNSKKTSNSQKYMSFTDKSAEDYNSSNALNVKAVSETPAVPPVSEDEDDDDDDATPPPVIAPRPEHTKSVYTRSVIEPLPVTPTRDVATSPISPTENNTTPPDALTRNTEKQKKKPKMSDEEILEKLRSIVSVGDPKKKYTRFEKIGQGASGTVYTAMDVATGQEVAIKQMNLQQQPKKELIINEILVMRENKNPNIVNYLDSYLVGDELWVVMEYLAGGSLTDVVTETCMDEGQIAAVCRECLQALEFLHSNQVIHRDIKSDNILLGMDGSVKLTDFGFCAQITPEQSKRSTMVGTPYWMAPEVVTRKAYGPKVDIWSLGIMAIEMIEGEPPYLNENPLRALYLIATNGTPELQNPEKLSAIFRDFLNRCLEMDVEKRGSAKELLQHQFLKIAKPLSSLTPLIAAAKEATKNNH

PIK3CA(Q546K) = biological target: T11, PIK3CA(Q546K) (Homo sapiens, UniProt P42336, Q546K); assay: KINOMEscan panel screen; type: binding; settings: read-out: Percent Control(%)
T11 construct: purchased DiscoveRx KINOMEscan (Ambit Biosciences)

PRKD3 = biological target: T12, PRKD3 (Homo sapiens, UniProt O94806); assay: KINOMEscan panel screen; type: binding; settings: read-out: Percent Control(%)
T12 construct: purchased DiscoveRx KINOMEscan (Ambit Biosciences)
T12 sequence (O94806 whole entry): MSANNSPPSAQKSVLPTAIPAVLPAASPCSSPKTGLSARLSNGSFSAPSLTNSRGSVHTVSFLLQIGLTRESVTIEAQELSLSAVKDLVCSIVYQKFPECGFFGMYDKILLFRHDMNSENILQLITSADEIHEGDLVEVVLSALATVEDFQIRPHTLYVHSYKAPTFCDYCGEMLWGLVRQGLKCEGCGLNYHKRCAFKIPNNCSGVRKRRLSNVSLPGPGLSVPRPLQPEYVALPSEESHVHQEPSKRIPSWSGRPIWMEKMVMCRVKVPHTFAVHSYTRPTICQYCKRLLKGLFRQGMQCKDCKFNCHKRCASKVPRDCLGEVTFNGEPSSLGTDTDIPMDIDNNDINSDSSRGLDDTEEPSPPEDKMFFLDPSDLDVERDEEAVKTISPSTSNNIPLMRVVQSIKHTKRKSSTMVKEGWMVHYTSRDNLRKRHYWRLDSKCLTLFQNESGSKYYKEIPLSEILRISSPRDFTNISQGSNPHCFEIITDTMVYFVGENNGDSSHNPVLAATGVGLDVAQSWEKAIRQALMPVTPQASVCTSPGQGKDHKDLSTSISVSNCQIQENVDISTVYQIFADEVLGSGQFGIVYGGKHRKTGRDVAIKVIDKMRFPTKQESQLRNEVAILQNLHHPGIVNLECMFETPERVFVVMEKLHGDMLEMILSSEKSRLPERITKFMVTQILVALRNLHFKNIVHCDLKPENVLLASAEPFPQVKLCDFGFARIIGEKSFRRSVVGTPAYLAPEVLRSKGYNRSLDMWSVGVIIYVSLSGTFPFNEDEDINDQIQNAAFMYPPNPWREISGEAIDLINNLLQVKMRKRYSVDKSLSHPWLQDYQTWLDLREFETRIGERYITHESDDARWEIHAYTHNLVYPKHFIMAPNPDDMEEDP

KG-1 SP cells = assay: Hoechst 33342 side population (SP) cell assay; type: cell-based, human; settings: 5 μM, 48 h; vehicle 3.1%
Description: (§5) Flow cytometry and Hoechst 33342 dye efflux assays were used to examine the possible influences of SKLB-677 on leukemia SP cells. This method is based on the findings that stem cells and early progenitors are able to pump out Hoechst via the ATP-Binding Cassette (ABC) transporters. This property allows the observation of a cell population (called side population) that has low Hoechst fluorescence in the blue and red regions of the spectrum. In this study, the Hoechst SP cell assays were performed with human AML MV4-11 and KG-1 cells, as well as primary AML PBMCs. […] As shown in Fig. 4a and Supplementary Fig. S6, MV4-11, KG-1, and primary AML PBMCs contained about 22.3%, 3.1%, and 0.5% SP cells, respectively.
(§6) Supplementary Mat eri al and Methods […]
(§7) Reactions were monitored by thin la yer chrom atograph y (TLC) on M erck silica gel 60 F-254 thin la yer plates. 1H NMR and 13C NMR spectra were recorded on a Bruker AV -400 spectrometer at 400 MHz and 100 MHz, respectivel y. […]
(§8) Lo w -resolution and high-resolution mass spectral (MS) data were determined on an Agilent 1100 Series LCMS with UV detection at 254nm in low -reson ance electrospray mode (ESI). All final compounds were purified to >95% purity, as determined b y hi gh- performance liquid chromatograph y (HP LC). […]

[2] = system: primary AML PBMCs SP cells; assay: Hoechst 33342 side population (SP) cell assay; type: cell-based, human; settings: 5 μM, 48 h; vehicle 0.5%
Description: as §5, §6, §7, §8

[3] = Pharmacokinetic assessment in rats; type: in vivo, SD rats; settings: rat, mean; for Tmax / half-life / AUC(0-t) / Cmax / t1/2: 10 mg/kg; for AUC(0-t): read-out: AUC(0-36h)
Procedure: Preliminary pharmacokinetic characteristics of SKLB-677 were assessed on rats with SKLB-677 at a dose of 10 mg/kg P.O. and I.V. administration. The key pharmacokinetic parameters calculated are summarized in Supplementary Table S6.
SD rats (6 per group) were orally treated or injected intravenously with 10 mg/kg SKLB-677, followed by the collection of blood from the jugular vein into heparinized tubes at the appropriate times. The plasma was isolated by centrifugation. The plasma concentrations of SKLB-677 were determined using liquid–liquid extraction followed by high-performance liquid chromatography (HPLC) with tandem mass spectrometric detection. Noncompartmental pharmacokinetic parameters (AUC, Tmax, Cmax, and t1⁄2) were obtained from the blood concentration time profiles using DAS software.
Supplementary Table S6. The pharmacokinetic characteristics of SKLB-677. […]
standard deviation. t1/2: Mean half-life associat ed with the terminal slope and standard deviation.C max: Mean peak plasma concentration and standard deviation.
Tmax: Mean time to reach max imum plasma concentration and standard dev iation. CL:
Mean bod y clearance and standard deviation. Vss: Mean volume of distribution at steady state and standard deviation. The statistical anal ysis of data was shown as mean values and SD v alues (n= 6) .

CC(C)(C)c1cc(NC(=O)Nc2ccc(Oc3ncnc4[nH]ncc34)c(F)c2)no1 [SKLB-677, 1-(4-(1H-pyrazolo[3,4-d]pyrimidin-4-yloxy)-3-fluorophenyl)-3-(5-tert-butylisoxazol-3-yl)urea]
remaining binding at 10 µM [1]: 13% | remaining binding at 10 µM (BIKE): 89% | remaining binding at 10 µM (CAMK1G): 48% | remaining binding at 10 µM (CDC2L5): 0.6% | remaining binding at 10 µM (PRP4): 73% | remaining binding at 10 µM (CLK2): 6.4% | remaining binding at 10 µM (DMPK2): 50% | remaining binding at 10 µM (ERK5): 70% | remaining binding at 10 µM (HCK): 0.5% | remaining binding at 10 µM (MYLK4): 78% | remaining binding at 10 µM (PAK1): 68% | remaining binding at 10 µM (PIK3CA(Q546K)): 100% | remaining binding at 10 µM (PRKD3): 100% | SP cells (KG-1 SP cells): could almost eliminate SP cells | SP cells [2]: could almost eliminate SP cells | clearance ([3]; SD, plasma, iv, 10 mg/kg I.V.): 0.617 mL/min/kg | Vd ([3]; SD, plasma, iv, 10 mg/kg I.V., read-out: Vss (apparent volume of distribution, Vd)): 0.271 L/kg | Tmax ([3]; SD, plasma, iv, 10 mg/kg I.V.): 0.033 h | half-life ([3]; SD, plasma, iv, 10 mg/kg I.V.): 5.09 h | AUC(0-t) ([3]; SD, plasma, iv, 10 mg/kg I.V.): 272 µg·h/mL | Cmax ([3]; SD, plasma, iv, 10 mg/kg I.V., read-out: Cmax): 58200 ng/mL | Tmax ([3]; SD, plasma, po, 10 mg/kg P.O.): 3 h | half-life ([3]; SD, plasma, po, 10 mg/kg P.O.): 5.43 h | AUC(0-t) ([3]; SD, plasma, po, 10 mg/kg P.O.): 176 µg·h/mL | Cmax ([3]; SD, plasma, po, 10 mg/kg P.O., read-out: Cmax): 12300 ng/mL | t1/2 ([3]; 10 mg/kg I.V.): 5.1 h | CL ([3]; 10 mg/kg P.O.): 0.967 mL/min/kg | Vss ([3]; 10 mg/kg P.O.): 0.446 L/kg | Cmax ([3]; 10 mg/kg P.O.): 12280 ng/mL | t1/2 ([3]; 10 mg/kg P.O.): 5.4 h
